Where “and” joins values, the source holds several entries; their conditions need not be identical. Identical values can stand only once. Like-named read-outs stand apart in the source and are kept apart here.
Tests used:
BJAB cells = test: Apoptosis, annexin staining flow cytometry; assay type: cell-based, human
[1] = In vivo pharmacokinetics, plasma LC-MS/MS
Procedure: Pharmacokinetic and cytochrome P450 inhibition studies. Studies were performed with the assistance of Touchstone Biosciences (Plymouth Meeting, Pennsylvania). For pharmacokinetic bioanalysis, male CD-1 mice were fasted overnight before being dosed with M1i-124 via oral gavage (20mg/kg), intraperitoneal injection in the lower right quadrant of the abdomen (20 mg/kg), or intravenous tail vein injection (5 mg/kg). All blood samples were taken via tail vein at 5, 15, and 30 minutes, and 1, 2, 4, 6, 8, and 24 hours after compound administration. The plasma concentration of the compound was determined using LC-MS/MS analysis. […]

**Q.** Which results are given for `O=S(=O)(NCc1ccc2c(c1)OCO2)c1ccc(Cc2ccc(S(=O)(=O)NCc3ccc4c(c3)OCO4)cc2)cc1` [M1i-124]?
**A.** Annexin (% positivity) (BJAB cells; BJAB, individual replicates): 34.8% and 31.55% and 33.15%; apoptosis of BJAB cells (BJAB cells; result in words): either no or minimal apoptotic response; Plasma concentration (IP) ([1]; IP, 0.083 hours): 658 ng/mL and 561 ng/mL; Plasma concentration (IP) ([1]; IP, 0.25 hours): 720 ng/mL and 607 ng/mL; Plasma concentration (IP) ([1]; IP, 0.5 hours): 775 ng/mL and 671 ng/mL; Plasma concentration (IP) ([1]; IP, 1 hours): 437 ng/mL and 307 ng/mL; Plasma concentration (IP) ([1]; IP, 2 hours): 242 ng/mL and 173 ng/mL; Plasma concentration (IP) ([1]; IP, 4 hours): 110 ng/mL and 86.5 ng/mL; Plasma concentration (IP) ([1]; IP, 6 hours): 59.4 ng/mL; Plasma concentration (IP) ([1]; IP, 8 hours): 38.1 ng/mL and 35.4 ng/mL; Plasma concentration (IP) ([1]; IP, 24 hours): 7.87 ng/mL; Plasma concentration (IV) ([1]; IV, 0.083 hours): 2080 ng/mL and 1440 ng/mL; Plasma concentration (IV) ([1]; IV, 0.25 hours): 1320 ng/mL and 1020 ng/mL; Plasma concentration (IV) ([1]; IV, 0.5 hours): 302 ng/mL; Plasma concentration (IV) ([1]; IV, 1 hours): 115 ng/mL and 152 ng/mL; Plasma concentration (IV) ([1]; IV, 2 hours): 30.6 ng/mL and 29 ng/mL; Plasma concentration (IV) ([1]; IV, 4 hours): 16.3 ng/mL; Plasma concentration (IV) ([1]; IV, 6 hours): 12.7 ng/mL and 16.3 ng/mL; Plasma concentration (IV) ([1]; IV, 8 hours): 12.6 ng/mL; Plasma concentration (IV) ([1]; IV, 24 hours): 2.97 ng/mL and 3.88 ng/mL; Plasma concentration (PO) ([1]; PO, 0.083 hours): 306 ng/mL and 267 ng/mL; Plasma concentration (PO) ([1]; PO, 0.25 hours): 56.5 ng/mL and 86.1 ng/mL; Plasma concentration (PO) ([1]; PO, 0.5 hours): 57.2 ng/mL; Plasma concentration (PO) ([1]; PO, 1 hours): 25.9 ng/mL and 21.8 ng/mL; Plasma concentration (PO) ([1]; PO, 2 hours): 14.7 ng/mL and 15.7 ng/mL; Plasma concentration (PO) ([1]; PO, 4 hours): 13.1 ng/mL; Plasma concentration (PO) ([1]; PO, 6 hours): 9.73 ng/mL and 11.5 ng/mL; Plasma concentration (PO) ([1]; PO, 8 hours): 8.44 ng/mL and 9.62 ng/mL; Plasma concentration (PO) ([1]; PO, 24 hours): 2.39 ng/mL and 2.74 ng/mL; concentration at 6 h ([1]; male, CD-1, mouse, in vivo, ip, 20 mg/kg, IP, 6 hours, read-out: Plasma concentration (IP)): 54.8 ng/mL; concentration at 24 h ([1]; male, CD-1, mouse, in vivo, ip, 20 mg/kg, IP, 24 hours, read-out: Plasma concentration (IP)): 7.17 ng/mL; concentration at 0.5 h ([1]; male, CD-1, mouse, in vivo, iv, 5 mg/kg, IV, 0.5 hours, read-out: Plasma concentration (IV)): 412 ng/mL; concentration at 4 h ([1]; male, CD-1, mouse, in vivo, iv, 5 mg/kg, IV, 4 hours, read-out: Plasma concentration (IV)): 20.4 ng/mL; concentration at 8 h ([1]; male, CD-1, mouse, in vivo, iv, 5 mg/kg, IV, 8 hours, read-out: Plasma concentration (IV)): 10.9 ng/mL; concentration at 0.5 h ([1]; male, CD-1, mouse, in vivo, po, 20 mg/kg, PO, 0.5 hours, read-out: Plasma concentration (PO)): 42.6 ng/mL; concentration at 4 h ([1]; male, CD-1, mouse, in vivo, po, 20 mg/kg, PO, 4 hours, read-out: Plasma concentration (PO)): 15.4 ng/mL; concentration at 0.083 h ([1]; male, CD-1, mouse, plasma, ip, 20 mg/kg, IP, 0.083 hours, read-out: Plasma concentration (IP)): 451 ng/mL; concentration at 0.25 h ([1]; male, CD-1, mouse, plasma, ip, 20 mg/kg, IP, 0.25 hours, read-out: Plasma concentration (IP)): 509 ng/mL; concentration at 0.5 h ([1]; male, CD-1, mouse, plasma, ip, 20 mg/kg, IP, 0.5 hours, read-out: Plasma concentration (IP)): 596 ng/mL; concentration at 1 h ([1]; male, CD-1, mouse, plasma, ip, 20 mg/kg, IP, 1 hours, read-out: Plasma concentration (IP)): 349 ng/mL; concentration at 2 h ([1]; male, CD-1, mouse, plasma, ip, 20 mg/kg, IP, 2 hours, read-out: Plasma concentration (IP)): 259 ng/mL; concentration at 4 h ([1]; male, CD-1, mouse, plasma, ip, 20 mg/kg, IP, 4 hours, read-out: Plasma concentration (IP)): 126 ng/mL; concentration at 6 h ([1]; male, CD-1, mouse, plasma, ip, 20 mg/kg, IP, 6 hours, read-out: Plasma concentration (IP)): 75.3 ng/mL; concentration at 8 h ([1]; male, CD-1, mouse, plasma, ip, 20 mg/kg, IP, 8 hours, read-out: Plasma concentration (IP)): 53.2 ng/mL; concentration at 24 h ([1]; male, CD-1, mouse, plasma, ip, 20 mg/kg, IP, 24 hours, read-out: Plasma concentration (IP)): 9.14 ng/mL; Cmax ([1]; male, CD-1, mouse, plasma, ip, mice, 20 mg/kg i.p., read-out: mean peak plasma concentration (Cmax)): 681 ng/mL; half-life ([1]; male, CD-1, mouse, plasma, ip, mice, 20 mg/kg i.p., read-out: t1/2 (converted)): 380 min; concentration at 0.083 h ([1]; male, CD-1, mouse, plasma, iv, 5 mg/kg, IV, 0.083 hours, read-out: Plasma concentration (IV)): 2070 ng/mL; concentration at 0.25 h ([1]; male, CD-1, mouse, plasma, iv, 5 mg/kg, IV, 0.25 hours, read-out: Plasma concentration (IV)): 1200 ng/mL; concentration at 0.5 h ([1]; male, CD-1, mouse, plasma, iv, 5 mg/kg, IV, 0.5 hours, read-out: Plasma concentration (IV)): 361 ng/mL; concentration at 1 h ([1]; male, CD-1, mouse, plasma, iv, 5 mg/kg, IV, 1 hours, read-out: Plasma concentration (IV)): 122 ng/mL; concentration at 2 h ([1]; male, CD-1, mouse, plasma, iv, 5 mg/kg, IV, 2 hours, read-out: Plasma concentration (IV)): 24.3 ng/mL; concentration at 4 h ([1]; male, CD-1, mouse, plasma, iv, 5 mg/kg, IV, 4 hours, read-out: Plasma concentration (IV)): 13.4 ng/mL; concentration at 6 h ([1]; male, CD-1, mouse, plasma, iv, 5 mg/kg, IV, 6 hours, read-out: Plasma concentration (IV)): 11.6 ng/mL; concentration at 8 h ([1]; male, CD-1, mouse, plasma, iv, 5 mg/kg, IV, 8 hours, read-out: Plasma concentration (IV)): 8.84 ng/mL; concentration at 24 h ([1]; male, CD-1, mouse, plasma, iv, 5 mg/kg, IV, 24 hours, read-out: Plasma concentration (IV)): 2.62 ng/mL; C0 ([1]; male, CD-1, mouse, plasma, iv, mice, 5 mg/kg i.v., read-out: mean initial plasma concentration): 1860 ng/mL; Vd ([1]; male, CD-1, mouse, plasma, iv, mice, 5 mg/kg i.v., read-out: steady-state volume of distribution (Vss)): 15.4 L/kg; clearance ([1]; male, CD-1, mouse, plasma, iv, mice, 5 mg/kg i.v., read-out: systemic clearance): 77.9 mL/min/kg; half-life ([1]; male, CD-1, mouse, plasma, iv, mice, 5 mg/kg i.v., read-out: terminal half-life (t1/2) (converted)): 523 min; concentration at 0.083 h ([1]; male, CD-1, mouse, plasma, po, 20 mg/kg, PO, 0.083 hours, read-out: Plasma concentration (PO)): 310 ng/mL; concentration at 0.25 h ([1]; male, CD-1, mouse, plasma, po, 20 mg/kg, PO, 0.25 hours, read-out: Plasma concentration (PO)): 78.2 ng/mL; concentration at 0.5 h ([1]; male, CD-1, mouse, plasma, po, 20 mg/kg, PO, 0.5 hours, read-out: Plasma concentration (PO)): 35.8 ng/mL; concentration at 1 h ([1]; male, CD-1, mouse, plasma, po, 20 mg/kg, PO, 1 hours, read-out: Plasma concentration (PO)): 22.5 ng/mL; concentration at 2 h ([1]; male, CD-1, mouse, plasma, po, 20 mg/kg, PO, 2 hours, read-out: Plasma concentration (PO)): 17.7 ng/mL; concentration at 4 h ([1]; male, CD-1, mouse, plasma, po, 20 mg/kg, PO, 4 hours, read-out: Plasma concentration (PO)): 11.5 ng/mL; concentration at 6 h ([1]; male, CD-1, mouse, plasma, po, 20 mg/kg, PO, 6 hours, read-out: Plasma concentration (PO)): 13.1 ng/mL; concentration at 8 h ([1]; male, CD-1, mouse, plasma, po, 20 mg/kg, PO, 8 hours, read-out: Plasma concentration (PO)): 11.7 ng/mL; concentration at 24 h ([1]; male, CD-1, mouse, plasma, po, 20 mg/kg, PO, 24 hours, read-out: Plasma concentration (PO)): 3.18 ng/mL; half-life ([1]; male, CD-1, mouse, plasma, po, mice, 20 mg/kg p.o., read-out: t1/2 (converted)): 526 min; Cmax ([1]; male, CD-1, mouse, plasma, mice, 20 mg/kg oral, read-out: Cmax): 294 ng/mL; adverse clinical signs during PK studies ([1]; mice, 24 hours, result in words): No adverse clinical signs were observed

From article PMC11996864, “A small-molecule inhibitor of BCL10-MALT1 interaction abrogates progression of diffuse large B cell lymphoma” (The Journal of Clinical Investigation, 2025)
